≈ marks a conversion by molar mass, not a printed value. Non-standard residues stand in square brackets, D forms with d. Residues, ends and D or L forms follow the SMILES beside them. ξ: configuration not given here. ξLac(3-iPr) = CC(C)CC(O)C(=O)O; NMeV = CN[CH](C(=O)O)C(C)C; NMeA = CN[CH](C)C(=O)O; βAla = NCCC(=O)O
Conditions: buffer; pH 7.4; 6.0 h; 150.0 µM

| solubility kinetic | SMILES |
| --- | --- |
| < 1 µg/mL | COc1cccc(NC(=O)c2cc(-c3ccc(C)c(C)c3)nc3ccccc23)c1 |
| > 33 µg/mL | CN(C)CC(=O)NC1CCCc2c1cnn2-c1ccc(F)cc1F (configuration not stated) |
| > 44 µg/mL | OC(CCN1CCCCC1)c1ccc(-c2ccccc2)cc1 (configuration not stated) |
| < 1 µg/mL | Cc1ccc(S(=O)(=O)Nc2ccc(F)cc2C(=O)Nc2nc(-c3ccccc3)cs2)cc1 |
| < 1 µg/mL | Cc1ccc(NS(=O)(=O)c2ccccc2C(=O)Nc2nc(-c3ccccc3)cs2)cc1 |
| 11.9 µg/mL (≈ 29.9 µM) | CC(O)(C#Cc1ccc2c(c1)N(c1nc(N)ncc1Cl)CC2)c1nccs1 (configuration not stated) |
| 2.55 µg/mL (≈ 7.23 µM) | Cc1ccc(-n2c(C)cc(C3=NNC(=NC4CC4)SC3)c2C)cc1C |
| < 1 µg/mL | COc1ccc(C)cc1NS(=O)(=O)c1ccc(-c2cnc(C3CC3)o2)cc1 |
| < 1 µg/mL | O=C(Nc1ccc2oc(-c3cccnc3)nc2c1)c1ccc(-c2ccccc2)o1 |
| < 1 µg/mL | Cc1ccc(CN2C(=O)C(O)(CC(=O)c3ccc(C)cc3)c3ccccc32)cc1 (configuration not stated) |
| > 29 µg/mL | O=C(Nc1ccc(F)cc1F)c1cc(-c2ccc[nH]2)n[nH]1 |
| 20.4 µg/mL (≈ 56.2 µM) | COc1cccc(-c2nc(-c3c(C)noc3C)cc3[nH]c(C)cc23)c1OC |
| > 77 µg/mL | Cc1noc(C)c1CN1CCNc2cc(Nc3ccccc3)ncc2C1 |
| 2.64 µg/mL (≈ 6.54 µM) | COc1ccccc1Nc1ccnc(N2CCN(C(=O)c3ccc(C)cc3)CC2)n1 |
| 15.2 µg/mL (≈ 37.1 µM) | COc1cccc(-n2nc(C(=O)O)cc2-c2ccc(C3CCCCC3)c(Cl)c2)c1 |
| < 1 µg/mL | O=C(Nc1ccc(Br)cc1)c1ccc(F)c(S(=O)(=O)NC2CCCCCC2)c1 |
| 35.9 µg/mL (≈ 89.6 µM) | COc1cc(C(=S)N2CCN(CCO)CC2)ccc1OCc1ccc(C)cc1 |
| 0.999 µg/mL (≈ 4.21 µM) | O=C1Nc2ccccc2/C1=C\c1ccc(O)cc1 |
| > 52 µg/mL | NC(=O)C1CCN(c2ncnc(-c3ccc4c(c3)OCCCO4)n2)CC1 |
| < 1 µg/mL | CC(C)Oc1ccc(CCNC(=O)c2cc3sccc3n2Cc2ccccc2)cc1OC(C)C |
| > 64 µg/mL | O=C(C1CCN(c2nc(-c3ccc(Br)cc3)cs2)CC1)N1CCNCC1 |
| > 96 µg/mL | COc1ccc(-c2nc(-c3c(C)noc3C)cc3c2cc(C)n3CCN(C)C)cc1OC |
| < 1 µg/mL | Cc1ccc(-c2cc(C(=O)Nc3ccc(S(N)(=O)=O)cc3)c3cccc(C)c3n2)cc1C |

| solubility kinetic | SMILES |
| --- | --- |
| > 90 µg/mL | COc1ccccc1-c1cc2c(ccn2C)c(C(=O)NCC2CCN(C)C(=O)C2)n1 (configuration not stated) |
| 31.4 µg/mL (≈ 65.6 µM) | O=C(O)c1ccc(N2C(=O)/C(=C/c3ccc(-c4ccc([N+](=O)[O-])cc4)o3)C=C2c2ccccc2)cc1 |
| < 1 µg/mL | CC1=C(C(=O)Nc2nnc(-c3ccccc3)s2)C(c2nn(C)cc2Cl)N=C(Nc2nc3ccccc3o2)N1 (configuration not stated) |
| < 1 µg/mL | COc1ccc(C2C=C(c3ccc(Cl)cc3)Nc3nc(-c4ccc(Cl)cc4)nn32)cc1 (configuration not stated) |
| > 71 µg/mL | COc1ccc(C2c3c(oc4ccc(C)cc4c3=O)C(=O)N2CCCN2CCOCC2)cc1OC (configuration not stated) |
| 44.2 µg/mL (≈ 125 µM) | NC(=O)C1CCN(c2nccc(-c3ccc4c(c3)OCCCO4)n2)CC1 |
| < 1 µg/mL | CC(C)(C)c1ccc(-n2cnc3cc(C(=O)N4CCCCC4)ccc32)cc1 |
| < 1 µg/mL | COc1ccc(-c2ccc3nc(-c4cc(F)ccc4F)oc3c2)c(OC)c1OC |
| < 1 µg/mL | Cc1ccccc1C(=O)N1CCc2cc(-n3cc(NC(=O)Cc4ccccc4)cn3)ccc21 |
| 6.75 µg/mL (≈ 25.3 µM) | CCc1ccc(NC(=O)c2cc3ncccn3n2)cc1 |
| < 1 µg/mL | COc1ccc2[nH]c(=O)c(-c3noc(-c4ccccc4)n3)cc2c1 |
| < 1 µg/mL | Cn1ccc2c(C(=O)NCc3cccnc3)nc(-c3ccccc3C#N)cc21 |
| < 1 µg/mL | Cn1nnnc1Sc1ncnc2scc(-c3cc4ccccc4o3)c12 |
| 17.5 µg/mL (≈ 46.4 µM) | O=C(Cc1c[nH]c2ncc(-c3ccc(Cl)cc3)cc12)NCc1cccnc1 |
| > 39 µg/mL | O=C1Nc2ccccc2/C1=C/c1cccc(C(=O)O)c1 |
| < 1 µg/mL | COc1ccccc1C(=O)N1CCc2cc(-c3nc(NC(=O)Cc4ccc5c(c4)OCO5)sc3C)ccc21 |
| 8.84 µg/mL (≈ 24.3 µM) | CCOc1ccc(CCNC(=O)c2ccc3ccccc3n2)cc1OCC |
| < 1 µg/mL | Fc1cnc(-c2ccccc2C(F)F)nc1NCc1ccc(-n2ccnn2)cc1 |
| < 1 µg/mL | Cc1ccc(S(=O)(=O)Nc2cc(Cl)c(Cl)cc2C(=O)Nc2nc(-c3ccccc3)cs2)cc1 |
| 2.91 µg/mL (≈ 7.85 µM) | Fc1ccc(-c2csc3ncnc(Sc4nnnn4C4CC4)c23)cc1 |
| 4.96 µg/mL (≈ 9.65 µM) | O=C(NCC1(c2nc(-c3ccccc3)cs2)CCOCC1)c1cccc(-c2noc(C(F)(F)F)n2)c1 |
| < 1 µg/mL | CCOC(=O)c1ccc(N2C(=O)c3n[nH]c(-c4cccs4)c3C2c2ccc(Cl)cc2Cl)cc1 (configuration not stated) |
| < 1 µg/mL | CNc1oc(-c2cccc3ccccc23)nc1C#N |

| solubility kinetic | SMILES |
| --- | --- |
| < 1 µg/mL | Cc1ccc(OCCn2c(CCNC(=O)C3CCCCC3)nc3ccccc32)cc1 |
| < 1 µg/mL | CCCc1ccc(-c2csc(NC(=O)c3ccncc3NS(=O)(=O)c3ccc(C)cc3)n2)cc1 |
| 23.3 µg/mL (≈ 57.1 µM) | CC(=O)c1c(C)[nH]c(C(=O)Nc2cccc([S+](=O)([O-])N3CC[C@@H](F)C3)c2)c1C |
| 1.06 µg/mL (≈ 2.24 µM) | CC1CCC(NC(=O)c2ccc3c(c2)N(Cc2ccccc2F)C(=O)c2ccccc2S3)CC1 (configuration not stated) |
| < 1 µg/mL | Cc1ccc(-c2csc(NC(=O)c3ccncc3NS(=O)(=O)c3ccc(C)cc3)n2)cc1 |
| < 1 µg/mL | CC1=Nc2cc(C(=O)NCCc3ccccc3)ccc2Sc2c(C)ccc(C)c21 |
| > 56 µg/mL | Cc1cnc(-c2ccccc2C(C)C)nc1NCC1CCN(C2COC2)CC1 |
| 23.9 µg/mL (≈ 83.1 µM) | Nc1scc2c(C(=O)O)nn(-c3ccccc3)c(=O)c12 |
| 13.6 µg/mL (≈ 60.9 µM) | CCCCOc1ccc(CC(=O)NO)cc1 |
| < 1 µg/mL | Cc1ccc(-c2csc(NC(=O)c3ccccc3NS(=O)(=O)c3ccc(C)cc3)n2)cc1 |
| < 1 µg/mL | Cc1ccc(S(=O)(=O)Nc2cc(F)ccc2C(=O)Nc2nc(-c3ccccc3)cs2)cc1 |
| < 1 µg/mL | COc1cncc(Nc2ncc(-c3cccc(N(C)C)c3)c3c2OCC3)c1 |
| 10.1 µg/mL (≈ 31.2 µM) | CCCCn1cnc2cc(NCc3ccc(OCC)cc3)ccc21 |
| 34.3 µg/mL (≈ 74.3 µM) | N#Cc1cccc(S(=O)(=O)Nc2cnccc2C(=O)Nc2nc(-c3ccccc3)cs2)c1 |
| > 49 µg/mL | CN(C)CCCN1c2ccc(O)cc2Sc2ccc(Cl)cc21 |
| 5.04 µg/mL (≈ 19.8 µM) | S=c1[nH]c2ccccc2n1CCc1ccccc1 |
| 1.43 µg/mL (≈ 3.55 µM) | Cc1cc(NC(=O)c2ccc(NC(=O)Cc3ccc(Cl)c(Cl)c3)cc2)no1 |
| 10.8 µg/mL (≈ 32 µM) | O=C(Nc1cccc(OC(F)(F)F)c1)c1cc(-c2ccc[nH]2)n[nH]1 |
| 32.8 µg/mL (≈ 90.4 µM) | COc1ccc(NC(=O)c2c(C)cccc2C)cc1[S+](=O)([O-])N(C)C |
| < 1 µg/mL | COc1cc(C(=O)NC2CCCc3c2[nH]c2c(Cl)cccc32)cc(OC)c1OC (configuration not stated) |
| < 1 µg/mL | CCN1C(=O)c2ccccc2S(=O)c2ccc(NC(=O)Cc3ccc(F)cc3)cc21 (configuration not stated) |
| > 31 µg/mL | CC(=O)c1c(C)[nH]c(C(=O)N(C)C)c1C |
| < 1 µg/mL | c1ccc(-c2cc(Nc3nc(-c4ccncc4)nc4ccccc34)n[nH]2)cc1 |

| solubility kinetic | SMILES |
| --- | --- |
| 4.76 µg/mL (≈ 13.3 µM) | CC(Nc1ccc([S+](=O)([O-])Nc2nccs2)cc1)c1ccccc1 (configuration not stated) |
| > 58 µg/mL | CC[C@@](C)(Nc1ccnc(-c2c[nH]c3ncccc23)n1)C(=O)NCC(F)(F)F |
| > 49 µg/mL | NC(=O)C1CCN(c2nc(-c3ccc4c(c3)CCO4)cs2)CC1 |
| > 46 µg/mL | O=C(Nc1ccc(C(=O)N2CCCC2)cc1)c1ccccc1F |
| > 61 µg/mL | CC[C@H](Nc1ncnc2nc[nH]c12)c1nc2cccc(F)c2c(=O)n1-c1ccccc1 |
| < 1 µg/mL | Clc1cccc(Nc2nc(-c3ccncc3)nc3ccccc23)c1 |
| < 1 µg/mL | Cn1c(=O)c2cc(C(=O)NCCCN3CCN(c4ccccc4F)CC3)sc2c2ccccc21 |
| > 45 µg/mL | NC(=O)C1CCN(c2nc(-c3cccc(F)c3)cs2)CC1 |
| < 1 µg/mL | COC(=O)Nc1nc2ccc(SC(C)C)cc2[nH]1 |
| > 67 µg/mL | COc1ccc(Cn2c(=O)[nH]c3cc(C(=O)NCCCN4CCCCC4)ccc3c2=O)cc1 |
| < 1 µg/mL | O=[S+]([O-])(Nc1cnc2ccccc2c1)c1ccc(NCc2ccc(Cl)cc2O)cc1 |
| < 1 µg/mL | Cc1ccc(-c2cc(C(=O)Nc3ccc(C#N)cc3)c3ccccc3n2)cc1C |
| > 14 µg/mL | c1ccc(-c2cn[nH]c2)cc1 |
| > 59 µg/mL | CN1C(=O)c2ccccc2[S@](=O)c2ccc(C(=O)NCCN3CCCC3)cc21 |
| > 57 µg/mL | CC(C)c1nc2oc3c(NCCN(C)C)ncnc3c2c2c1COC(C)(C)C2 |
| 22 µg/mL (≈ 63 µM) | O=C(Cc1cccs1)NCc1nnc2ccc(-c3ccccc3)nn12 |
| 41.1 µg/mL (≈ 72.1 µM) | CCCc1cc(C)[nH]c(=O)c1CNC(=O)c1cc(-c2ccc(N3CCN(C(C)C)CC3)nc2)cc2c1cnn2C(C)C |
| > 100 µg/mL | CC(=O)N1CCN(c2ccc(OCc3nn(C)c(C)c3-c3cccc4c(CCCOc5cc(C)c(Cl)c(C)c5)c(C(=O)O)n(Cc5cccnc5)c34)cc2)CC1 |
| 41.4 µg/mL (≈ 103 µM) | Cc1cnc(-c2ccccc2OC(C)C)nc1NCc1ccc(-n2ccnn2)cc1 |
| < 1 µg/mL | CCc1ccc2oc(NC3=NC(c4[nH]ncc4Cl)C4=C(CCCC4=O)N3)nc2c1 (configuration not stated) |
| < 1 µg/mL | Cc1ccc(S(=O)(=O)Nc2cnccc2C(=O)Nc2nc(-c3cccc(Cl)c3)cs2)cc1 |
| 52.4 µg/mL (≈ 111 µM) | O=[S+]([O-])(Nc1ccc(N2CCNCC2)cc1)c1ccc(NCc2cccc(Cl)c2O)cc1 |

| SMILES | solubility kinetic |
| --- | --- |
| CCC(C)C1NC(=O)C2CCCN2C(=O)C(CC(C)C)OC(=O)CCNC(=O)C(C)N(C)C(=O)C(C(C)C)N(C)C1=O (configuration not stated) (cyclo([ξLac(3-iPr)]PI[NMeV][NMeA][βAla]); configuration not given here) | 2.68 µg/mL (≈ 4.52 µM) |
| Nc1c(C(=O)Nc2ccc(Cl)cc2)sc2nc3c(cc12)N1CCC3CC1 | < 1 µg/mL |
| CN1CCN(C(=O)Cc2c[nH]c3ncc(-c4ccccc4Oc4ccccc4)cc23)CC1 | > 42 µg/mL |
| Cc1cc(SCc2sc(-c3ccc(C(F)(F)F)c(F)c3)nc2C)ccc1OCC(=O)O | > 70 µg/mL |
| CCOc1ccc(CCNC(=O)c2cc3ccncc3n2Cc2cccc(C)c2)cc1OCC | 55.7 µg/mL (≈ 122 µM) |
| COC(=O)[C@@]12OC[C@]34[C@H]([C@@H](O)[C@@H]1O)[C@@]1(C)CC(=O)C(O)=C(C)[C@@H]1C[C@H]3OC(=O)[C@H](OC(=O)/C=C(\C)C(C)C)[C@@H]24 | > 81 µg/mL |

From PubChem BioAssay AID1645848
